These results are taken from ChEMBL document CHEMBL5465560, “Selectivity Literature for EUbOPEN Chemogenomic Library” (2024).

The target of experiment [1] is Bone morphogenetic protein receptor type-1A (Homo sapiens, UniProt P36894). Briefly: Selectivity interaction (KinomeScan (DiscoverX)) EUB0000595a BMPR1A. The conditions noted are these: at 10 µM.
The target of experiment [2] is STE20/SPS1-related proline-alanine-rich protein kinase (Homo sapiens) (UniProt Q9UEW8). Briefly: Selectivity interaction (KinomeScan (DiscoverX)) EUB0001619a STK39. The conditions noted are these: at 1 µM.
Experiment [3] concerns the target T1, Mitogen-activated protein kinase kinase kinase 7 (Homo sapiens) (UniProt O43318).
T1 sequence (whole entry): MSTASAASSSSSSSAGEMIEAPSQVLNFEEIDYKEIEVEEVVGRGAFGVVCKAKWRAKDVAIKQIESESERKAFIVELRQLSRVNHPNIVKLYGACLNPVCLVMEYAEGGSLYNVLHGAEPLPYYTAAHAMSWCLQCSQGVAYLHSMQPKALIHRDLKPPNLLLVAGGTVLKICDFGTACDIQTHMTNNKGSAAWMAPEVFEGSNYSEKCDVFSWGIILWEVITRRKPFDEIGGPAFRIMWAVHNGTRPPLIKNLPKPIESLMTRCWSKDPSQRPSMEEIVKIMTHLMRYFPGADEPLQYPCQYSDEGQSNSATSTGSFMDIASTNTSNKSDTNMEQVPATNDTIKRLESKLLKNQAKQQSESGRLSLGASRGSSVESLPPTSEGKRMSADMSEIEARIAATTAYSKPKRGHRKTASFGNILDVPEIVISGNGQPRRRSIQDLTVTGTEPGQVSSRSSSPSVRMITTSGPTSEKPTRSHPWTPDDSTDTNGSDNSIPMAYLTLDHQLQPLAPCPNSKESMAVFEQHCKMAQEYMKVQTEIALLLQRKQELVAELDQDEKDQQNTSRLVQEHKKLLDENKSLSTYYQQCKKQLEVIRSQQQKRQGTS
Description: Selectivity interaction (ActivX KiNativ screen (ex vivo kinase selectivity in human PBMCs)) EUB0001619a MAP3K7. It counts as cell-based. The conditions noted are these: PBMC, at 1 µM.

Experiment [4] deals with T2, Serine/threonine-protein kinase RIO1 (Homo sapiens) (UniProt Q9BRS2).
T2 sequence (whole entry): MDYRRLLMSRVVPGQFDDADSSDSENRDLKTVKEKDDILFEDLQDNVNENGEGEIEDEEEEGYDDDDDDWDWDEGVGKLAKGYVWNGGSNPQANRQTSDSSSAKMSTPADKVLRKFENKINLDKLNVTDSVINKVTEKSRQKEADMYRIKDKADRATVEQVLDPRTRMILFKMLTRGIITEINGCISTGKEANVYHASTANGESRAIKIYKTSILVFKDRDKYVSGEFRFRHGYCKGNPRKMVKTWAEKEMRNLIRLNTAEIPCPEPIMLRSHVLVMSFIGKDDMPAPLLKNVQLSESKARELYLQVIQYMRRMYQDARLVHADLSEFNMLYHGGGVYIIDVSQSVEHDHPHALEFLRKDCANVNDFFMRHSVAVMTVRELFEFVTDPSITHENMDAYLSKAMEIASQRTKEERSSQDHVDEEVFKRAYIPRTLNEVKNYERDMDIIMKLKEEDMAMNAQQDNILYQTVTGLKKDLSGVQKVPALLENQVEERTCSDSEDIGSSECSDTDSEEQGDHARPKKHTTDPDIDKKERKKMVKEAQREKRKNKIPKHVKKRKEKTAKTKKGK
Description: Selectivity interaction (KinomeScan (DiscoverX)) EUB0000607a RIOK1. The conditions noted are these: at 10 µM.

The target in experiment [5] is Cyclin-dependent kinase 7 (Homo sapiens, UniProt P50613). Briefly: Selectivity interaction (KinomeScan (DiscoverX)) EUB0000607a CDK7. The conditions noted are these: at 10 µM.
Sequence of Cyclin-dependent kinase 7 (P50613 whole entry): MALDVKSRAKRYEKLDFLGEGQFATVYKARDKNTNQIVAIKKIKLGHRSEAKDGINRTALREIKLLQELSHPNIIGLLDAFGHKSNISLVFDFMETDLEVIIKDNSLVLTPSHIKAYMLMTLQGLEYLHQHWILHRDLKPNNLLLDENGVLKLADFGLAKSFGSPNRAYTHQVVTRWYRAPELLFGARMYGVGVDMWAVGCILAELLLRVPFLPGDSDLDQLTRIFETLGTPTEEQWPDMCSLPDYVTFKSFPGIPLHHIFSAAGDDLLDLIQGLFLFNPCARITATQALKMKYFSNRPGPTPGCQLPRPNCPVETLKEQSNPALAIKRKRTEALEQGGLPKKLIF
The test system of experiment [6] is Receptor-type tyrosine-protein kinase FLT3 (Homo sapiens), P36888 [UNDEFINED MUTATION]. Description: Selectivity interaction (KinomeScan (DiscoverX)) EUB0000607a FLT3. The conditions noted are these: at 10 µM.
Sequence of Receptor-type tyrosine-protein kinase FLT3 (Homo sapiens), P36888 [UNDEFINED MUTATION] (P36888 whole entry, looked up, change not shown): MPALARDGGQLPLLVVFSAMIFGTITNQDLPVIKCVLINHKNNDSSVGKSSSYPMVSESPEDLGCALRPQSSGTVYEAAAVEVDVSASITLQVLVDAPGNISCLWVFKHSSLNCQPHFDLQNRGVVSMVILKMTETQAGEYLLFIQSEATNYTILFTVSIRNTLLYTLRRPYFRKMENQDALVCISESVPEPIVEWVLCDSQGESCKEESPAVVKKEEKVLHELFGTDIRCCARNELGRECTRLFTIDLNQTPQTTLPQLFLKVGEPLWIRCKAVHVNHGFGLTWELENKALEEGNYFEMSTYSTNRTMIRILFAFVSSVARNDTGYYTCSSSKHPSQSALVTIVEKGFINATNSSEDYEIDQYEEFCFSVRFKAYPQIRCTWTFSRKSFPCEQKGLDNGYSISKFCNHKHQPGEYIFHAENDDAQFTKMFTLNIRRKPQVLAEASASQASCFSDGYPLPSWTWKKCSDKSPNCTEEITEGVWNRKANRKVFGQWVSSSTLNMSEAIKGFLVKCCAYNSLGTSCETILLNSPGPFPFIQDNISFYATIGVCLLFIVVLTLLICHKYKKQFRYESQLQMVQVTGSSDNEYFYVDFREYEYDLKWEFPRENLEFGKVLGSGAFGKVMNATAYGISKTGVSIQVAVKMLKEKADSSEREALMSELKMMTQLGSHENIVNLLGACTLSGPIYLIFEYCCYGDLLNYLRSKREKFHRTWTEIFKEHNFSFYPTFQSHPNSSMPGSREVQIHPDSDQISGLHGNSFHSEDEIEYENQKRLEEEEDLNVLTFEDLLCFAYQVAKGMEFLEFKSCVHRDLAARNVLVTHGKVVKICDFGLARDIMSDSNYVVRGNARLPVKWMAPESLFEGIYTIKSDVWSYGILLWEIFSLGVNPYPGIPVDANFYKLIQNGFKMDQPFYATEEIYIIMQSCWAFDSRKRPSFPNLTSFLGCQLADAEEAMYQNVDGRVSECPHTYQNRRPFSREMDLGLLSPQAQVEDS
The target of experiment [7] is eIF-2-alpha kinase GCN2 (Homo sapiens) (UniProt Q9P2K8). Description: Selectivity interaction (ActivX KiNativ screen (kinase selectivity in THP-1 cell lysates)) EUB0000639a EIF2AK4. The conditions noted are these: lysate. It counts as subcellular.
Sequence of eIF-2-alpha kinase GCN2 (Homo sapiens) (Q9P2K8 whole entry): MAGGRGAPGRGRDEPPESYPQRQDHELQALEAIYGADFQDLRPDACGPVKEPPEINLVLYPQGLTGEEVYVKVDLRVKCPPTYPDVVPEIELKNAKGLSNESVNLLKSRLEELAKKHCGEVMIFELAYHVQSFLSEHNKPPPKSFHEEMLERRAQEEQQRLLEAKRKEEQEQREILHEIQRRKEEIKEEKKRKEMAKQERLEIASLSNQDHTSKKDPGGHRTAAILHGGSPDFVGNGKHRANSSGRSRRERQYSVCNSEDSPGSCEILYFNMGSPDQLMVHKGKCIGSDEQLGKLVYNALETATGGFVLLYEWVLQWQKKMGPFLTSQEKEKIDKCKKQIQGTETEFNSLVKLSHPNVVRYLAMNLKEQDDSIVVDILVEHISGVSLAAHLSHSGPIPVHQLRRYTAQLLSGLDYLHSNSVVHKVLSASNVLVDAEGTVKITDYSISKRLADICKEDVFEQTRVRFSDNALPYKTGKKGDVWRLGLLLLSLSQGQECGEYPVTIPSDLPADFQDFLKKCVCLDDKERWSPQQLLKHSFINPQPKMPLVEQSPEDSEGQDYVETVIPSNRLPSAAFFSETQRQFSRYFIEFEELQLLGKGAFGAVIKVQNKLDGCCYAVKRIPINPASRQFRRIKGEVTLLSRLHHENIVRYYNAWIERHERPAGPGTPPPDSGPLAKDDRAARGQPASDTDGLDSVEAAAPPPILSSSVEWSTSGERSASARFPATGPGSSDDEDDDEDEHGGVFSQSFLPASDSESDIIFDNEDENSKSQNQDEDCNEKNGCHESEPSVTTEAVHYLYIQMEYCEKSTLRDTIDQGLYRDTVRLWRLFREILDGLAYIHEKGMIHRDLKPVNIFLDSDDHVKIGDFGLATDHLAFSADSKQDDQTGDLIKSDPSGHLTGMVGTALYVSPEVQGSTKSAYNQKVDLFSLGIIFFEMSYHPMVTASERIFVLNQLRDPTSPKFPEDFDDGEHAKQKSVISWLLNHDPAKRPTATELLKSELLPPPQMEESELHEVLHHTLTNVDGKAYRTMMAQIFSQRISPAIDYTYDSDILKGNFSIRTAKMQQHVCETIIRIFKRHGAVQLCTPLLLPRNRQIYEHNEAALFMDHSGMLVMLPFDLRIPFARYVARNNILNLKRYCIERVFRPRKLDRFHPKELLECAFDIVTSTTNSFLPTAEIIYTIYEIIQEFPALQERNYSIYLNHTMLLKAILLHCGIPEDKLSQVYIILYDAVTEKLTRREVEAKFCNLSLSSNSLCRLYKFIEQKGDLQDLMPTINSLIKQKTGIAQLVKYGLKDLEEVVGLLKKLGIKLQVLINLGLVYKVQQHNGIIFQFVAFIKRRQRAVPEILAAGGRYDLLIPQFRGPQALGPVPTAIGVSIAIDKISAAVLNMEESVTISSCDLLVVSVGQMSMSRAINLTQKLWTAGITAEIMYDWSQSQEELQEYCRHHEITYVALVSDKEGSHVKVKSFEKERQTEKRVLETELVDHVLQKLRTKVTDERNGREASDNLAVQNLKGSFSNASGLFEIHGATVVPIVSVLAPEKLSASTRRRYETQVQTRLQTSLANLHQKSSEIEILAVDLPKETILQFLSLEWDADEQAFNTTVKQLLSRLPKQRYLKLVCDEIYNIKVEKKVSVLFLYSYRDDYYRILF
The target of experiment [8] is T3, Aurora kinase C (Homo sapiens) (UniProt Q9UQB9).
T3 sequence (whole entry): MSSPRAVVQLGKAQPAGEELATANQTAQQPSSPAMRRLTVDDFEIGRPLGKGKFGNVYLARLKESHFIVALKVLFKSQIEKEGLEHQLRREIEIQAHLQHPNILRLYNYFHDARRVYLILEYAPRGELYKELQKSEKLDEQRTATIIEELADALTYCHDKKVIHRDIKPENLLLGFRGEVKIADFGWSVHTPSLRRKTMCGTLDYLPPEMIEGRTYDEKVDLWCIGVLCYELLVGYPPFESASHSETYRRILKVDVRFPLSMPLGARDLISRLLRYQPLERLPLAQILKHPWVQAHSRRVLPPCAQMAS
Description: Selectivity interaction (KinomeScan (DiscoverX)) EUB0001049a AURKC. The conditions noted are these: at 1 µM.

Experiment [9] concerns the target Phosphatidylinositol 4-phosphate 5-kinase type-1 alpha (Homo sapiens) (UniProt Q99755). Briefly: Selectivity interaction (KinomeScan (DiscoverX)) EUB0001868a PIP5K1A. The conditions noted are these: at 1 µM.
Experiment [10] concerns the target Cyclin-dependent kinase 14 (Homo sapiens) (UniProt O94921). Description: Selectivity interaction (KinomeScan (DiscoverX)) EUB0000092b CDK14. The conditions noted are these: at 10 µM.
Another experiment has as its target Aurora kinase B (Homo sapiens, UniProt Q96GD4). Description: Selectivity interaction (Kinase panel (DSF assay)) EUB0001558a AURKB. (In general: Differential scanning fluorimetry follows unfolding on heating by fluorescence.)

Sequence of Bone morphogenetic protein receptor type-1A (P36894 whole entry): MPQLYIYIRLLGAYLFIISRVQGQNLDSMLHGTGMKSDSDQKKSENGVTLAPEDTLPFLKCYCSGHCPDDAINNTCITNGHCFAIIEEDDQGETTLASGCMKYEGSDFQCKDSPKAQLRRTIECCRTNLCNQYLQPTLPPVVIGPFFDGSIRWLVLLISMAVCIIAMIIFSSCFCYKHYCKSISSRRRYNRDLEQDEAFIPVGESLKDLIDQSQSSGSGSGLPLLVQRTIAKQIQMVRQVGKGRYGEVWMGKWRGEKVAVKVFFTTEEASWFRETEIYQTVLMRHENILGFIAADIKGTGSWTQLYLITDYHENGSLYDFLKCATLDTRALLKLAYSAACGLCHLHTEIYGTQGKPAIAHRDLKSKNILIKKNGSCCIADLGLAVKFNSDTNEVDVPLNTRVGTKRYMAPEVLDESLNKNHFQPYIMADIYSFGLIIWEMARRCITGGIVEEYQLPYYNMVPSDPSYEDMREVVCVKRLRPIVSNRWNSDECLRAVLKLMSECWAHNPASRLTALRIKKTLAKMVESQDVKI
Sequence of Phosphatidylinositol 4-phosphate 5-kinase type-1 alpha (Homo sapiens) (Q99755 whole entry): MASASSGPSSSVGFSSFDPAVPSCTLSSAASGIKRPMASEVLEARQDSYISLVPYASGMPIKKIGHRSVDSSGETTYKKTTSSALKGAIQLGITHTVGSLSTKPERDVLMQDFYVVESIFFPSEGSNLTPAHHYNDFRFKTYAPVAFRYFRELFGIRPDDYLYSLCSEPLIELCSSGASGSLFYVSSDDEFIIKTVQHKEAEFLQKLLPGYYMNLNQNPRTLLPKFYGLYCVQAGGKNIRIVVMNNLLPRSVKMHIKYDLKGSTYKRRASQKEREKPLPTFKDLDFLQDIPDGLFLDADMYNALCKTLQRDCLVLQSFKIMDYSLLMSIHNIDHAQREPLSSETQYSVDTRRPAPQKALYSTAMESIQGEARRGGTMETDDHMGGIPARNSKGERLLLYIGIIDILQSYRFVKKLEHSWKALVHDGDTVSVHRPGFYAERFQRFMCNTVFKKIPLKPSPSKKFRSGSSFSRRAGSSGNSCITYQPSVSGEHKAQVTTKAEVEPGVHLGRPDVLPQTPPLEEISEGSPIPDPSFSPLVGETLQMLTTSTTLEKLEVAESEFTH
Sequence of Aurora kinase B (Q96GD4 whole entry): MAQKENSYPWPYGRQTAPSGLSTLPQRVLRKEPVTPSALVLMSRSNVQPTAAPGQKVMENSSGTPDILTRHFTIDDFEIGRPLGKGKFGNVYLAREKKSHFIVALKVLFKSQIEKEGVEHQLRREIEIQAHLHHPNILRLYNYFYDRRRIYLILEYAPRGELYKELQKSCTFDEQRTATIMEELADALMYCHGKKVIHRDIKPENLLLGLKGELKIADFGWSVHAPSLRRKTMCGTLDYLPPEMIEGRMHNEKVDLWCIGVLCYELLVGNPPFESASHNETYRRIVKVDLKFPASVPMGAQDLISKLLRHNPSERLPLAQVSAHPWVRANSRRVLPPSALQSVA
Sequence of Cyclin-dependent kinase 14 (Homo sapiens) (O94921 whole entry): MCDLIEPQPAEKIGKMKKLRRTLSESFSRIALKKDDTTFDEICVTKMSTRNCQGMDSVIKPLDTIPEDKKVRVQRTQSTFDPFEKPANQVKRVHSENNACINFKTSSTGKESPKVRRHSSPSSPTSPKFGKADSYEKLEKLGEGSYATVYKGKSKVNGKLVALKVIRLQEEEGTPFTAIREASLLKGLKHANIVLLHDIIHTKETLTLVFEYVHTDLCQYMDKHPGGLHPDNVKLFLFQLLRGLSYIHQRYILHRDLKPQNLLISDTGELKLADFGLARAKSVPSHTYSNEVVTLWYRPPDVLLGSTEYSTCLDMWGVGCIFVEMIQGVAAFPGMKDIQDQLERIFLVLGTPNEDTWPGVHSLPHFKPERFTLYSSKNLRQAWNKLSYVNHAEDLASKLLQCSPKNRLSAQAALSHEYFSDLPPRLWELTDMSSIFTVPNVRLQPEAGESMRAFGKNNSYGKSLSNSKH

In [1], `COCC(=O)NC/C=C/c1ccc2ncnc(Nc3ccc(Oc4ccc(C)nc4)c(C)c3)c2c1` [CP-724714] returned a % of control of 100%.

As to `N#Cc1cccc(-c2c[nH]c3ncnc(N4CCOCC4)c23)c1`, the % of control in experiment [2] was determined as 92%. For the same compound, the % of inhibition in [3] turned out to be 8%. As to `CNC(=O)Nc1ccc(-c2nc(N3CC4CCC(C3)O4)c3cnn(C4CCC5(CC4)OCCO5)c3n2)cc1`, the % of control stood at 91% in [4], 88% in [5] and 100% in experiment [6]. Turning to `CC[C@@H]1[C@H](F)C(=O)N[C@@H]1COc1nccc2cc(C(N)=O)c(OC)cc12` [ZIMLOVISERTIB], the % of inhibition in [7] (at 0.01 µM) was -4.6%; in [7] (at 0.04 µM) it was -11.3%; in [7] (at 0.2 µM) it was -14.4%; in experiment [7] (at 1 µM), 13.9%; in experiment [7] (at 5 µM) it was 12.4%. Turning to `COc1cc(Nc2nc(C)cc(-c3cnn4nc(OC)ccc34)n2)cc(C(F)(F)F)c1`, the % of control in experiment [8] was 84%.

In turn, `Cc1cc(-c2ccnc(Nc3cnn(C)c3)n2)ccc1CNC(=O)N1CC(OC(C)C)C1` returned a % of control in [9] of 28%. In experiment [10], `CCC(=O)N1CCN(c2ccc(-n3c(=O)ccc4cnc5ccc(-c6cnc7ccccc7c6)cc5c43)cc2C(F)(F)F)CC1` displayed a % of control of 99%.

Compound `CC(C)(O)[C@H](F)CN1Cc2cc(NC(=O)c3cnn4cccnc34)c(N3CCOCC3)cc2C1=O` registered a dTM at Aurora kinase B of 0.5 K.
